Experimental data taken from paper PMC7307922 (Journal of Medicinal Chemistry, 2020).
Where a name gives a salt, the structure may show the parent alone. Read-outs that look alike come from different tables or passages of the source.

Molecular target: T1, hFFA3 (Homo sapiens, UniProt O14843)
T1 sequence (O14843 1-346): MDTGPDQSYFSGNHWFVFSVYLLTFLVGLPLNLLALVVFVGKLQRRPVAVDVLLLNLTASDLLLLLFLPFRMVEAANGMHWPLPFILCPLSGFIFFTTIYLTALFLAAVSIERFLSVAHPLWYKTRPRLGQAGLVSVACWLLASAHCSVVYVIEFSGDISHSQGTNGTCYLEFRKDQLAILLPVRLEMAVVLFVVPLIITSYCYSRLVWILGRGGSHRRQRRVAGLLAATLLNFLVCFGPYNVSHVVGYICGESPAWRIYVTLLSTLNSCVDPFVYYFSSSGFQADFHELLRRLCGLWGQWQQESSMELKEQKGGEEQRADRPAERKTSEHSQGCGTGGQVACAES
Assay: cell-based
Conditions: for Emax: HEK293, read-out: cAMP Emax; for PAM pEC50: cAMP assay in the presence of 1 μM propionate; for cAMP pEC50: compound alone, mean of ≥3 independent experiments ± standard error; for allosteric effect on propionate response: cAMP assay together with propionate (56: 30 μM compound; 62, 63: 1 μM propionate)
Procedure: The ligands were initially screened in a human FFA3-dependent [^35S]GTPγS binding assay as this assay reflects receptor-mediated activation of Gi/o proteins and is known to generally correlate well with ligand affinity.[30] Analogues of particular interest were tested further in a cAMP inhibition assay as this is an important downstream effect of Gi-activation. […] It is furthermore performed in whole cells, is more downstream, includes G protein signal amplification, and therefore better reflects a more natural ligand–receptor response.
HEK293 Flp-In T-Rex cells stably transfected with FFA3-eYFP receptors were incubated overnight with doxycycline to induce expression, then harvested, and cryopreserved. On the day of each experiment, cells were thawed and resuspended in stimulation buffer. Assays were carried out using a 384-well plate format with 3000 cells/well using the CisBio cAMP GS dynamic kit as per manufacturer’s protocol. Compounds were tested for the ability to inhibit 0.3 μM forskolin-induced cAMP production after co-incubation for 1 h. Reactions were measured using a PHERAstar FS plate reader (BMGLabtech, Aylesbury, UK).

[1] = read-out: EC50 (cAMP assay), hFFA3

**Q.** What does the source list for `CCC1C(C(=O)Nc2ccccc2C)=C(C)NC2=C1C(=O)CCC2` (stereo not shown) [Compound 34, 4-Ethyl-2-methyl-5-oxo-N-(o-tolyl)-1,4,5,6,7,8-hexahydroquinoline-3-carboxamide]?
**A.** Emax: 106%; PAM pEC50: 6.45 ± 0.16; cAMP pEC50 (hFFA3): 5.38 ± 0.13

**Q.** What does the source list for `CC1=C(C(=O)Nc2cc(Cl)ccc2Cl)C(CC2CCN(C(=O)OC(C)(C)C)CC2)C2=C(CCCC2=O)N1` (stereo not shown) [Compound 56, tert-Butyl 4-((3-((2,5-dichlorophenyl)carbamoyl)-2-methyl-5-oxo-1,4,5,6,7,8-hexahydroquinolin-4-yl)methyl)piperidine-1-carboxylate]?
**A.** allosteric effect on propionate response: NAM; cAMP pEC50 (hFFA3): nr^d

**Q.** With `CC1=C(C(=O)Nc2ccccc2C)C(C2CC2)C2=C(CCCC2=O)N1` (stereo not shown) [Compound 33, 4-Cyclopropyl-2-methyl-5-oxo-N-(o-tolyl)-1,4,5,6,7,8-hexahydroquinoline-3-carboxamide] as the compound, how does the Emax read?
**A.** 102%

**Q.** What about the “cAMP pEC50” value (hFFA3) of the same compound?
**A.** 6.22 ± 0.10

**Q.** What about the EC50 [1] of the same compound?
**A.** 600 nM

**Q.** For `CC1=C(C(=O)Nc2cc(Cl)ccc2Cl)C(CN)C2=C(CCCC2=O)N1` (stereo not shown) [Compound 52, 4-(Aminomethyl)-N-(2,5-dichlorophenyl)-2-methyl-5-oxo-1,4,5,6,7,8-hexahydroquinoline-3-carboxamide Hydrochloride], which “cAMP pEC50” value (hFFA3) is on record?
**A.** nr^d

**Q.** With `CCC(C)C1C(C(=O)Nc2ccccc2C)=C(C)NC2=C1C(=O)CCC2` (stereo not shown) [Compound 30, 4-(sec-Butyl)-2-methyl-5-oxo-N-(o-tolyl)-1,4,5,6,7,8-hexahydroquinoline-3-carboxamide] as the compound, how does the Emax read?
**A.** 110%

**Q.** What about the “PAM pEC50” value of the same compound?
**A.** 6.30 ± 0.04

**Q.** And the “cAMP pEC50” value (hFFA3)?
**A.** 5.00 ± 0.07

**Q.** Which “cAMP pEC50” value (hFFA3) does the source give for `CCN(CC)CCOCC1C(C(=O)Nc2cc(Cl)ccc2Cl)=C(C)NC2=C1C(=O)CCC2` (stereo not shown) [Compound 54, N-(2,5-Dichlorophenyl)-4-((2-(diethylamino)ethoxy)methyl)-2-methyl-5-oxo-1,4,5,6,7,8-hexahydroquinoline-3-carboxamide] here?
**A.** nr^d

**Q.** What does the source list for `CC1=C(C(=O)Nc2ccccc2C)C(/C=C/c2ccccc2)C2=C(CCCC2=O)N1` (stereo not shown) [Compound 39]?
**A.** EC50: > 10000 nM; Emax: 113%; PAM pEC50: 6.14 ± 0.07; cAMP pEC50 (hFFA3): 4.34 ± 0.18

**Q.** `CC1=C(C(=O)Nc2ccccc2C)C(c2ccc(Br)o2)C2=C(CCCC2=O)N1` (stereo not shown) [Compound 44, 4-(5-Bromofuran-2-yl)-2-methyl-5-oxo-N-(o-tolyl)-1,4,5,6,7,8-hexahydroquinoline-3-carboxamide] was tested. Which Emax did it give?
**A.** 95%

**Q.** And the “cAMP pEC50” value (hFFA3)?
**A.** 6.61 ± 0.02

**Q.** What does the source list for `CC1=C(C(=O)Nc2ccccc2C)C(C2CCCCC2)C2=C(CCCC2=O)N1` (stereo not shown) [Compound 31, 4-Cyclohexyl-2-methyl-5-oxo-N-(o-tolyl)-1,4,5,6,7,8-hexahydroquinoline-3-carboxamide]?
**A.** Emax: 91%; cAMP pEC50 (hFFA3): 5.26 ± 0.10

**Q.** How did the “PAM pEC50” value turn out when `COC(=O)C1=C(C)NC2=C(C(=O)CCC2)C1CC(C)C` (stereo not shown) [Compound 28, Methyl 4-isobutyl-2-methyl-5-oxo-1,4,5,6,7,8-hexahydroquinoline-3-carboxylate] was run?
**A.** 6.21 ± 0.10

**Q.** What about the “allosteric effect on propionate response” value of the same compound?
**A.** PAM properties

**Q.** What about the “cAMP pEC50” value (hFFA3) of the same compound?
**A.** inactive alone and nr^c

**Q.** With `CC1=C(C(=O)Nc2ccccc2C)C(CC(C)C)C(C(=O)c2ccccc2)=C(C)N1` (stereo not shown) [Compound 25, 5-Benzoyl-4-isobutyl-2,6-dimethyl-N-(o-tolyl)-1,4-dihydropyridine-3-carboxamide] as the compound, how does the EC50 read?
**A.** > 100000 nM

**Q.** What about the “PAM pEC50” value of the same compound?
**A.** nr^c

**Q.** And the “cAMP pEC50” value (hFFA3)?
**A.** nr^c

**Q.** Which Emax does the source give for `CC1=C(C(=O)Nc2ccccc2C)C(c2ccc(C)o2)C2=C(CCCC2=O)N1` (stereo not shown) [Compound 42, 2-Methyl-4-(5-methylfuran-2-yl)-5-oxo-N-(o-tolyl)-1,4,5,6,7,8-hexahydroquinoline-3-carboxamide] here?
**A.** 100%

**Q.** And the “cAMP pEC50” value (hFFA3)?
**A.** 5.96 ± 0.03

**Q.** Which EC50 does the source give for `CC1=C(C(=O)Nc2cc(Cl)ccc2Cl)C(CCn2cccn2)C2=C(CCCC2=O)N1` (stereo not shown) [Compound 40, 4-(2-(1H-Pyrazol-1-yl)ethyl)-N-(2,5-dichlorophenyl)-2-methyl-5-oxo-1,4,5,6,7,8-hexahydroquinoline-3-carboxamide] here?
**A.** > 10000 nM

**Q.** What about the Emax of the same compound?
**A.** 96%

**Q.** What about the “cAMP pEC50” value (hFFA3) of the same compound?
**A.** 4.95 ± 0.08

**Q.** Which results are given for `CC1=C(C(=O)Nc2ccccc2C)C(c2cc(C)cs2)C2=C(CCCC2=O)N1` (stereo not shown) [Compound 43, 2-Methyl-4-(4-methylthiophen-2-yl)-5-oxo-N-(o-tolyl)-1,4,5,6,7,8-hexahydroquinoline-3-carboxamide]?
**A.** Emax: 102%; cAMP pEC50 (hFFA3): 5.86 ± 0.04

**Q.** What does the source list for `CCC1=C(C(=O)Nc2ccccc2C)C(c2ccco2)C2=C(CCCC2=O)N1` (stereo not shown) [Compound 22, 2-Ethyl-4-(furan-2-yl)-5-oxo-N-(o-tolyl)-1,4,5,6,7,8-hexahydroquinoline-3-carboxamide]?
**A.** Emax: 95%; cAMP pEC50 (hFFA3): 5.47 ± 0.04

**Q.** Which results are given for `CC1=C(C(=O)Nc2ccccc2C)C(C2CCCC2)C2=C(CCCC2=O)N1` (stereo not shown) [Compound 32, 4-Cyclopentyl-2-methyl-5-oxo-N-(o-tolyl)-1,4,5,6,7,8-hexahydroquinoline-3-carboxamide]?
**A.** Emax: 102%; increase in potency (cyclopentyl relative to cyclohexyl (31)): 20 fold; cAMP pEC50 (hFFA3): 6.54 ± 0.02; EC50 [1]: 288 nM

**Q.** For `CC1=C(C(=O)Nc2ccccc2C)C(c2cc3ccccc3o2)C2=C(CCCC2=O)N1` (stereo not shown) [Compound 45, 4-(Benzofuran-2-yl)-2-methyl-5-oxo-N-(o-tolyl)-1,4,5,6,7,8-hexahydroquinoline-3-carboxamide], which Emax is on record?
**A.** 98%

**Q.** And the “cAMP pEC50” value (hFFA3)?
**A.** 6.00 ± 0.02

**Q.** With `CC1=C(C(=O)Nc2cc(Cl)ccc2Cl)C(CC2CCNCC2)C2=C(CCCC2=O)N1` (stereo not shown) [Compound 53, N-(2,5-Dichlorophenyl)-2-methyl-5-oxo-4-(piperidin-4-ylmethyl)-1,4,5,6,7,8-hexahydroquinoline-3-carboxamide Hydrochloride] as the compound, how does the “cAMP pEC50” value (hFFA3) read?
**A.** nr^d

**Q.** For `CCCCCC1C(C(=O)Nc2ccccc2C)=C(C)NC2=C1C(=O)CCC2` (stereo not shown) [Compound 37, 2-Methyl-5-oxo-4-pentyl-N-(o-tolyl)-1,4,5,6,7,8-hexahydroquinoline-3-carboxamide], which “PAM pEC50” value is on record?
**A.** 6.40 ± 0.10

**Q.** What about the “cAMP pEC50” value (hFFA3) of the same compound?
**A.** 5.60 ± 0.17

**Q.** How did the EC50 turn out when `CC1=C(C(=O)Nc2ccccc2C)C(CCc2ccccc2)C2=C(CCCC2=O)N1` (stereo not shown) [Compound 38, 2-Methyl-5-oxo-4-phenethyl-N-(o-tolyl)-1,4,5,6,7,8-hexahydroquinoline-3-carboxamide] was run?
**A.** > 10000 nM

**Q.** And the Emax?
**A.** 97%

**Q.** And the “PAM pEC50” value?
**A.** 6.23 ± 0.03

**Q.** What about the “cAMP pEC50” value (hFFA3) of the same compound?
**A.** 4.21 ± 0.27

**Q.** How did the Emax turn out when `CC1=C(C(=O)Nc2ccccc2C)C(c2cccn2C)C2=C(CCCC2=O)N1` (stereo not shown) [Compound 41, 2-Methyl-4-(1-methyl-1H-pyrrol-2-yl)-5-oxo-N-(o-tolyl)-1,4,5,6,7,8-hexahydroquinoline-3-carboxamide] was run?
**A.** 97%

**Q.** And the “cAMP pEC50” value (hFFA3)?
**A.** 4.45 ± 0.09

**Q.** With `CC1=C(C(=O)c2ccccc2)C(CC(C)C)C2=C(CCCC2=O)N1` (stereo not shown) [Compound 29, 3-Benzoyl-4-isobutyl-2-methyl-4,6,7,8-tetrahydroquinolin-5(1H)-one] as the compound, how does the “PAM pEC50” value read?
**A.** >4

**Q.** What about the “allosteric effect on propionate response” value of the same compound?
**A.** PAM properties

**Q.** And the “cAMP pEC50” value (hFFA3)?
**A.** inactive alone and nr^c

**Q.** With `Cc1ccccc1NC(=O)C1=C(c2ccccc2)NC2=C(C(=O)CCC2)C1c1ccco1` (stereo not shown) [Compound 23, 4-(Furan-2-yl)-5-oxo-2-phenyl-N-(o-tolyl)-1,4,5,6,7,8-hexahydroquinoline-3-carboxamide] as the compound, how does the “cAMP pEC50” value (hFFA3) read?
**A.** completely inactive and nr^c

**Q.** With `COC(=O)C1=C(C)NC(C)=C(C(=O)Nc2ccccc2C)C1CC(C)C` (stereo not shown) [Compound 26, Methyl 4-isobutyl-2,6-dimethyl-5-(o-tolylcarbamoyl)-1,4-dihydropyridine-3-carboxylate] as the compound, how does the EC50 read?
**A.** > 100000 nM

**Q.** And the “PAM pEC50” value?
**A.** 6.16 ± 0.12

**Q.** And the “allosteric effect on propionate response” value?
**A.** PAM

**Q.** What about the “cAMP pEC50” value (hFFA3) of the same compound?
**A.** nr^c

**Q.** How did the Emax turn out when `CC1=C(C(=O)Nc2ccccc2C)C(c2csc3ccccc23)C2=C(CCCC2=O)N1` (stereo not shown) [Compound 46, 4-(Benzo[b]thiophen-3-yl)-2-methyl-5-oxo-N-(o-tolyl)-1,4,5,6,7,8-hexahydroquinoline-3-carboxamide] was run?
**A.** 95%

**Q.** What about the “cAMP pEC50” value (hFFA3) of the same compound?
**A.** 5.11 ± 0.04

**Q.** `CC1=C(C#N)C(CC(C)C)C(C(=O)Nc2ccccc2C)=C(C)N1` (stereo not shown) [Compound 27, 5-Cyano-4-isobutyl-2,6-dimethyl-N-(o-tolyl)-1,4-dihydropyridine-3-carboxamide] was tested. Which “PAM pEC50” value did it give?
**A.** 6.42 ± 0.09

**Q.** What about the “cAMP pEC50” value (hFFA3) of the same compound?
**A.** 3.99 ± 0.01

**Q.** How did the “PAM pEC50” value turn out when `CCCCC1C(C(=O)Nc2ccccc2C)=C(C)NC2=C1C(=O)CCC2` (stereo not shown) [Compound 36, 2-Methyl-5-oxo-4-butyl-N-(o-tolyl)-1,4,5,6,7,8-hexahydroquinoline-3-carboxamide] was run?
**A.** 6.58 ± 0.06

**Q.** And the “cAMP pEC50” value (hFFA3)?
**A.** 5.86 ± 0.03

**Q.** For `CC1=C(C(=O)Nc2ccccc2C)[C@@H](c2ccco2)C2=C(CCCC2=O)N1` [(S)-1], which EC50 is on record?
**A.** 2000 nM

**Q.** For `CC1=C(C(=O)Nc2cc(Cl)ccc2Cl)C(CNC(=O)OC(C)(C)C)C2=C(CCCC2=O)N1` (stereo not shown) [Compound 55, tert-Butyl((3-((2,5-dichlorophenyl)carbamoyl)-2-methyl-5-oxo-1,4,5,6,7,8-hexahydroquinolin-4-yl)methyl)carbamate], which “cAMP pEC50” value (hFFA3) is on record?
**A.** nr^d
